Assay results taken from patent US20140163048A1, “COMPOSITIONS WITH INCREASED STABILITY FOR INHIBITING TRANSIENT RECEPTOR POTENTIAL ION CHANNEL TRPA1” (Cubist Pharmaceuticals, Inc., priority 2012, published 2014).
Entries after “also recorded” stand apart in the source; their conditions may differ.

How the values were obtained:
[1] = system: serum chemistry biomarkers of hepatotoxicity; assay: Hepatotoxicity serum biomarker study, oral dose; assay type: in vivo, dogs; conditions: for serum biomarkers of hepatotoxicity (ALT, AST, ALP, GGT): dogs, 50 mg/kg PO; for ALT levels elevation: single PO dose of 50 mg/kg
Source text: […] 11A, showing measurements of alanine aminotranferease [ALT], aspartate aminotranferease [AST], alkaline phosphatase [ALP] and gamma-glutamyl transferase [GGT] in the dogs at each dose level (each bar represents a measurement from 1 dog in the study).

[2] = 7-day i.p. repeat dose screening toxicity study; assay type: in vivo, rats; conditions: 50 mg/kg/day i.p. for 7 consecutive days
Procedure: The compound of Formula (I) was evaluated in a 7-day repeat dose screening toxicity study in female rats. In order to maximize systemic exposure, rats were administered compound of Formula (I) i.p. at 50 mg/kg/day for 7 consecutive days, to obtain the results shown in FIG. 9. Clinical chemistry parameters were evaluated on Days 3 and 8. Histopathology was performed on select organs including the liver, kidney, spleen, and lung.

[3] = system: TRP channels and voltage-gated ion channels; assay: Selectivity over the panel of eight tested channels; assay type: cell-based, human; conditions: eight channels of Table 2
Procedure: Data for TRPA1 inhibition and the selectivity of TRPA1 inhibition was obtained by this method for the compound of Formula (I) and included in Table 1 and Table 2. All currents were recorded in whole-cell configuration using EPC-9 and EPC-10 amplifiers and Patchmaster software (HEKA). […] The standard pipette solution consisted of 140 mM CsAsp, 10 mM EGTA, 10 mM HEPES, 2.27 mM MgCl2, 1.91 mM CaCl2, 4 mM MgATP, and 0.1-0.3 mM Na2GTP, with pH adjusted to 7.2 with CsOH. In addition, a solution containing 145 mM CsCl, 10 mM HEPES, 10 mM EGTA and 1 mM MgCl2 (pH 7.2 adjusted with csOH) can be used. The standard bath solution contained 150 mM NaCl, 10 mM HEPES, 10 mM glucose, 4.5 mM KCl, 1 mM EGTA, 3 mM MgCl2, with pH adjusted to 7.4 with NaOH. In some instances, 2 mM CaCl2 was added in place of EGTA and the concentration of MgCl2 was reduced to 1 mM.

| SMILES | serum biomarkers of hepatotoxicity (ALT, AST, ALP, GGT) [1] | ALT levels elevation ([1]; female beagle dogs) | ALT levels elevation ([1]; male dogs) | serum biomarkers of hepatotoxicity ([2]; rats) | selectivity for block of TRPA1 over all other tested channels [3] | histopathology of liver, kidney, spleen, lung ([2]; female rats, days 3 and 8, 50 mg/kg/day) |
| --- | --- | --- | --- | --- | --- | --- |
| C[C@H]1CCCN1c1ccc(-c2csc(NC(=O)Cn3cnc4c3c(=O)n(C)c(=O)n4C)n2)cc1F [Formula (III)] | did elevate serum biomarkers of hepatotoxicity | up to 130 fold | up to 60 fold | did elevate serum biomarkers of hepatotoxicity | – | – |
| C[C@H]1CCCN1c1ncc(-c2cccc(NC(=O)Cn3cnc4c3c(=O)n(C)c(=O)n4C)n2)cn1 [Formula (I)] | did not elevate serum biomarkers of hepatotoxicity or acute phase response | – | – | – | at least 100 fold | No histopathological findings; also recorded: no adverse effects |
